# Data: article PMC4320118, “Micheliolide Derivative DMAMCL Inhibits Glioma Cell Growth In Vitro and In Vivo” (PLoS ONE, 2015)
# Marks after values point to notes of the source that are not given here.
# What was measured:
# [1] = cited from earlier work
# [2] = test system: primary acute myeloid leukemia (AML) cells; settings: cited from earlier work
# rat 9L gliosarcomas = test system: rat 9L gliosarcomas; parameters: method as in PMID 21559510; settings: cited from earlier work
# [3] = test system: human U251 glioma xenografts; parameters: method as in PMID 21559510; settings: human U251 glioma xenografts ref 12; cited from earlier work
# intracerebral C6 glioma [4] = test system: intracerebral C6 glioma
# Protocol: Adult Wistar rats (120–180 g, age 4–8 weeks) were obtained from the Animal Center at the Academy of Military Medical Sciences and had animal certification of SCXK (army) 2012–001. Animals were housed in collective cages at a temperature of 23 ± 2°C and relative humidity of 40% to 70%. All rats had free access to food and water.
# Intracerebral tumor implantations were performed according to the following procedures. C6 tumors were maintained as subcutaneous tumors in rats. Subcutaneous masses were excised, dissociated, and mixed with matrigel on ice (BD Biosciences) at a ratio of 1:1. After removing of the hair on the skull, a small midline incision in the scalp was gently made under anesthesia with 2% sodium pentobarbital at a dose of 40mg/kg. C6 cells in matrigel (0.1 mL of the cell/matrigel mixture containing 10^8 cells /mL) were carefully injected into the right frontal cortex by a special 16-gauge stainless steel needle with 5 mm needle tubing. Implantation coordinates were determined from Swanson’s Stereotaxic Atlas guidelines (1992): 1.0 mm anterior and 3.0 mm lateral to bregma, at a depth of 5.0 mm from the brain surface. […] The syringe was slowly retracted, the hole was sealed with bone wax, and the incision was sutured under aseptic conditions. […] Then 0.015 mg/kg buprenorphine (s.c.) was administered to relieve the pain. The rats were replaced in cages and allowed to recover from anesthesia.
# Rats were divided into the following 5 treatment groups 24 h after surgery (n = 9 rats /group) according to rat weight: 1) vehicle (normal saline: NS); 2) vincristine (VCR) at 100μg/kg; 3) DMAMCL at 25 mg/kg; 4) DMAMCL at 50 mg/kg; and 5) DMAMCL at 100 mg/kg. All drugs were prepared in NS and administered once daily for 21 days. DMAMCL was administered orally, and VCR was injected into the caudal vein. Rats were weighed and monitored for signs of mortality daily. Twenty one days into the treatment, rats were euthanized via CO2 asphyxiation under deep anesthesia by sodium pentobarbital. Brains and tumors were separated from the cerebellum and medulla oblongata, and weighed, photographed, fixed in formalin, and embedded in paraffin for sectioning. The tumor: brain weight ratio was assessed to observe the degree of tumor cell growth in brain. Serial sections (5 μm in thickness) were stained by hematoxylin and eosin (HE).
# intracerebral C6 glioma [5] = assay: Survival time analysis in C6 intracerebral glioma rats; type: in vivo, Wistar rats; settings: VCR, treated daily for 21 days
# Protocol: C6 tumors were maintained as subcutaneous tumors in rats.
# The survival time analyses were performed in C6 intracerebral glioma rats. […] Animals were monitored daily for signs of mortality and weight. Rats were sacrificed when a loss of mobility, lethargy, hemorrhaging around the eyes, or a hunched posture was observed as previously described. The observation time was terminated when all the vehicle rats died. Then the other rats were euthanized by CO2 asphyxiation.
# rat 9L gliosarcoma = test system: rat 9L gliosarcoma; parameters: method as in PMID 21727209; settings: direct injection into the brain using biodegradable beads, increased from 12.5 days ref 26; cited from earlier work
# [6] = VCR 100μg/kg caudal vein once daily for 21 days
smiles,measurement,setting,value
"C=C1C(=O)O[C@H]2[C@H]1CCC(C)=C1CC[C@@](C)(O)[C@@H]12 [MCL, micheliolide]",Stability compared with PTL,[1],more stable than PTL
same,Number of colony-forming units of primary AML cells,[2],greatly reduced the number of colony-forming units
C=CCc1ccc(O)c(-c2ccc(O)c(CC=C)c2)c1 [Honokiol],Increase of survival compared to controls,rat 9L gliosarcomas,5 days
same,Reduction of tumor volume,rat 9L gliosarcomas; rat 9L gliosarcomas ref 12,52.77%
same,Reduction of tumor volume,[3],50.21%
"CC[C@]1(O)C[C@H]2CN(CCc3c([nH]c4ccccc34)[C@@](C(=O)OC)(c3cc4c(cc3OC)N(C=O)[C@H]3[C@@](O)(C(=O)OC)[C@H](OC(C)=O)[C@]5(CC)C=CCN6CC[C@]43[C@@H]65)C2)C1 [VCR, vincristine, reference compound]",Deaths during the 21-day study,intracerebral C6 glioma [4]; VCR 100μg/kg caudal vein once daily,One rat died on day 18
same,Inhibition (percent decrease in tumor weight compared to the vehicle group),intracerebral C6 glioma [4]; [6],81.6%
same,Tumor weight,intracerebral C6 glioma [4]; [6],0.13 ± 0.07 g
same,Tumor/brain,intracerebral C6 glioma [4]; [6],6.5 ± 2.6 %
same,Histopathology of brain tissue (HE),"intracerebral C6 glioma [4]; VCR 100μg/kg, 21 days",appeared similar to normal brain tissues
same,Median survival of deceased animals,intracerebral C6 glioma [5],24 days
same,Time of death End,intracerebral C6 glioma [5],57 days
same,Time of death Start,intracerebral C6 glioma [5],23 days
same,Survival (# of rats) End,"intracerebral C6 glioma [5]; 63 days, n = 10",7 # of rats
same,Survival,intracerebral C6 glioma [5]; at 63 days,70 ^*** %
same,Mean survival,intracerebral C6 glioma [5]; observation 63 days,54.5 ± 16.4 days
same,Median survival,intracerebral C6 glioma [5]; observation 63 days,63 days
"C=C1C(=O)O[C@H]2[C@H]1CC/C(C)=C/CC[C@@]1(C)O[C@@H]21 [PTL, Parthenolide]",Stability,[1]; acidic and basic conditions ref 15,unstable under both acidic and basic conditions
"CO[C@H]1C[C@@H]2CC[C@@H](C)[C@@](O)(O2)C(=O)C(=O)N2CCCC[C@H]2C(=O)O[C@H]([C@H](C)C[C@@H]2CC[C@@H](O)[C@H](OC)C2)CC(=O)[C@H](C)/C=C(\C)[C@@H](O)[C@@H](OC)C(=O)[C@H](C)C[C@H](C)/C=C/C=C/C=C/1C [rapamycin, Rapamycin]",Survival,rat 9L gliosarcoma,29 days
